Experiments:
Format in all cases: in vivo
Monochoria vaginalis [1] = experiment: Test Example 1: herbicidal effect test by soil application in paddy rice; conditions: 120 g active ingredient per 10 ares, applied immediately after sowing, flooded pots, 14 days after application; for pest or weed control at 1200 g/ha: Pontederia vaginalis, soil, 336 h, read-out: weed inhibition rate
In short: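 Pre-emergence test in puddled, flooded paddy soil (about 3 cm water), 30 seeds per weed sown at 0–1 cm depth in a glass greenhouse. Emulsifiable concentrate diluted in water and dropped onto the pots straight after sowing at 120 g a.i. per 10 ares. Weed inhibition (%) scored at 14 days, in duplicate.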

[2] = test system: Echinochloa crus-galli var. formosensis; experiment: Test Example 2: herbicidal effect test by application during growth period of paddy rice; conditions: Echinochloa crus-galli; 120 g per 10 ares; applied seven days after sowing, flooded pots; 14 days after application; read-out: weed inhibition rate
In short: (§1)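 Herbicidal effect was scored 14 days after treatment, in duplicate per concentration. Weeds sown 0–1 cm deep in puddled, fertilized paddy soil under about 3 cm of standing water received a water-diluted emulsifiable concentrate by dropper 7 days post-sowing, at 120 g a.i. per 10 ares.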

Monochoria vaginalis [3] = experiment: as above; conditions: Pontederia vaginalis; 120 g per 10 ares; applied seven days after sowing, flooded pots; 14 days after application; read-out: weed inhibition rate
In short: as §1

Echinochloa crus-galli [4] = experiment: Test Example 4: herbicidal effect test by stem and leaf treatment in upland field; conditions: Echinochloa crus-galli; 120 g per 10 ares; sprayed seven days after sowing, upland soil; 14 days after application; read-out: weed inhibition rate
[5] = test system: Echinochloa crus-galli var. formosensis; experiment: Test Example 5: herbicidal effect test by soil application in paddy rice (low dose); conditions: Echinochloa crus-galli, soil, 336 h; 7.5 g per 10 ares; applied immediately after sowing, flooded pots; 14 days after application; read-out: weed inhibition rate
In short: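 Dose of 7.5 g a.i. per 10 ares, applied by dropper as diluted emulsifiable concentrate to flooded (~3 cm) paddy pots immediately after sowing seeds at 0–1 cm. Kept in a glass greenhouse; duplicate pots rated at 14 days post-application.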

[6] = test system: Echinochloa crus-galli var. formosensis; experiment: Test Example 6: herbicidal effect test by application during growth period of paddy rice (low dose); conditions: Echinochloa crus-galli; 7.5 g per 10 ares; applied seven days after sowing, flooded pots; 14 days after application; read-out: weed inhibition rate
In short: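 Low-dose water application, 7.5 g a.i. per 10 ares, given by dropper into flooded pots (about 3 cm depth) 7 days after sowing of 30 weed seeds each at 0–1 cm. Evaluation of inhibition (%) took place 14 days later, duplicate per rate.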

Digitaria ciliaris [7] = experiment: Test Example 7: herbicidal effect test by soil application in upland field (low dose); conditions: Digitaria ciliaris, 7.5 g per 10 ares, sprayed one day after sowing, 14 days after application, read-out: weed inhibition rate
In short: (§2)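 Pre-emergence soil treatment: 7.5 g a.i. per 10 a applied as water-diluted emulsifiable concentrate (100 L/10 a) to soil surface one day post-sowing in alluvial loam. Inhibition (%) assessed at 14 days, duplicate pots per concentration.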

Echinochloa crus-galli [8] = experiment: as above; conditions: Echinochloa crus-galli, 7.5 g per 10 ares, sprayed one day after sowing, 14 days after application, read-out: weed inhibition rate
In short: as §2

Digitaria ciliaris [9] = experiment: Test Example 8: herbicidal effect test by stem and leaf treatment in upland field (low dose); conditions: Digitaria ciliaris; 7.5 g per 10 ares; sprayed seven days after sowing, upland soil; 14 days after application; read-out: weed inhibition rate
Echinochloa crus-galli [10] = experiment: as above; conditions: Echinochloa crus-galli; 7.5 g per 10 ares; sprayed seven days after sowing, upland soil; 14 days after application; read-out: weed inhibition rate
Scirpus juncoides = experiment: Test Example 2: herbicidal effect test by application during growth period of paddy rice; conditions: Schoenoplectiella juncoides; 120 g per 10 ares; applied seven days after sowing, flooded pots; 14 days after application; read-out: weed inhibition rate
In short: as §1

CC(C)[C@]12C[C@@H](OCc3ccccc3F)[C@](C)(C[C@H]1C)O2 [1-94, (1S,2R,4R,5R)-2-[(2-fluorophenyl)methoxy]-1,5-dimethyl-4-isopropyl-7-oxabicyclo[2.2.1]heptane]
≥ 80%: pest or weed control at 1200 g/ha (Monochoria vaginalis [1]) | inhibition at 1200 g/ha [2] | inhibition at 1200 g/ha (Monochoria vaginalis [3]) | inhibition at 1200 g/ha (Echinochloa crus-galli [4]) | inhibition at 75 g/ha [5] | inhibition at 75 g/ha [6] | inhibition at 75 g/ha (Digitaria ciliaris [7]) | inhibition at 75 g/ha (Echinochloa crus-galli [8]) | inhibition at 75 g/ha (Digitaria ciliaris [9]) | inhibition at 75 g/ha (Echinochloa crus-galli [10])

CC(C)C1C[C@]2(C)O[C@@]1(C(C)C)C[C@H]2OCc1ccccc1F (stereo partly drawn) [1-133, (1S,2R,4R)-2-[(2-fluorobenzyl)oxy]-4,5-isopropyl-1-methyl-7-oxabicyclo[2.2.1]heptane]
≥ 80%: weed inhibition rate (Monochoria vaginalis [1]) | inhibition at 1200 g/ha [2] | inhibition at 1200 g/ha (Monochoria vaginalis [3]) | inhibition at 1200 g/ha (Scirpus juncoides) | inhibition at 1200 g/ha (Echinochloa crus-galli [4]) | inhibition at 75 g/ha [5] | inhibition at 75 g/ha [6] | inhibition at 75 g/ha (Digitaria ciliaris [7]) | inhibition at 75 g/ha (Echinochloa crus-galli [8]) | inhibition at 75 g/ha (Echinochloa crus-galli [10])

Cc1cccc(CO[C@@H]2C[C@]3(C(C)C)O[C@@]2(C)C[C@@H]3Br)c1 [1-680, (1S,2R,4R,5S)-5-bromo-1-methyl-2-[(3-methylphenyl)methoxy]-4-isopropyl-7-oxabicyclo[2.2.1]heptane]
≥ 80%: pest or weed control at 1200 g/ha (Monochoria vaginalis [1]) | inhibition at 1200 g/ha [2] | inhibition at 1200 g/ha (Monochoria vaginalis [3]) | inhibition at 1200 g/ha (Scirpus juncoides) | inhibition at 1200 g/ha (Echinochloa crus-galli [4]) | inhibition at 75 g/ha [5] | inhibition at 75 g/ha [6] | inhibition at 75 g/ha (Digitaria ciliaris [7]) | inhibition at 75 g/ha (Echinochloa crus-galli [8]) | inhibition at 75 g/ha (Echinochloa crus-galli [10])

CC(C)[C@]12C[C@@H](OCc3cccc(Cl)c3)[C@](C)(C[C@@H]1Br)O2 [1-692, (1S,2R,4R,5S)-5-bromo-2-[(3-chlorophenyl)methoxy]-1-methyl-4-isopropyl-7-oxabicyclo[2.2.1]heptane]
≥ 80%: pest or weed control at 1200 g/ha (Monochoria vaginalis [1]) | inhibition at 1200 g/ha [2] | inhibition at 1200 g/ha (Monochoria vaginalis [3]) | inhibition at 1200 g/ha (Scirpus juncoides) | inhibition at 1200 g/ha (Echinochloa crus-galli [4]) | inhibition at 75 g/ha [5] | inhibition at 75 g/ha [6] | inhibition at 75 g/ha (Digitaria ciliaris [7]) | inhibition at 75 g/ha (Echinochloa crus-galli [8])

CC(C)[C@]12C[C@@H](OCc3ccccc3Br)[C@](C)(C[C@@H]1Br)O2 [1-694, (1S,2R,4R,5S)-5-bromo-2-[(2-bromophenyl)methoxy]-1-methyl-4-isopropyl-7-oxabicyclo[2.2.1]heptane]
≥ 80%: pest or weed control at 1200 g/ha (Monochoria vaginalis [1]) | inhibition at 1200 g/ha [2] | inhibition at 1200 g/ha (Monochoria vaginalis [3]) | inhibition at 1200 g/ha (Echinochloa crus-galli [4]) | inhibition at 75 g/ha [5] | inhibition at 75 g/ha [6] | inhibition at 75 g/ha (Digitaria ciliaris [7]) | inhibition at 75 g/ha (Echinochloa crus-galli [8]) | inhibition at 75 g/ha (Echinochloa crus-galli [10])

CC(C)[C@]12C[C@@H](OCc3c(Cl)cccc3Cl)[C@](C)(C[C@@H]1Br)O2 [1-712, (1S,2R,4R,5S)-5-bromo-2-[(2,6-dichlorophenyl)methoxy]-1-methyl-4-isopropyl-7-oxabicyclo[2.2.1]heptane]
≥ 80%: pest or weed control at 1200 g/ha (Monochoria vaginalis [1]) | inhibition at 1200 g/ha [2] | inhibition at 1200 g/ha (Monochoria vaginalis [3]) | inhibition at 1200 g/ha (Scirpus juncoides) | inhibition at 1200 g/ha (Echinochloa crus-galli [4]) | inhibition at 75 g/ha [5] | inhibition at 75 g/ha [6] | inhibition at 75 g/ha (Digitaria ciliaris [7]) | inhibition at 75 g/ha (Echinochloa crus-galli [8]) | inhibition at 75 g/ha (Echinochloa crus-galli [10])

CC(C)[C@]12C[C@@H](OCc3ccsc3)[C@](C)(C[C@@H]1Br)O2 [1-722, (1S,2R,4R,5S)-5-bromo-1-methyl-4-isopropyl-2-(thiophen-3-ylmethoxy)-7-oxabicyclo[2.2.1]heptane]
≥ 80%: pest or weed control at 1200 g/ha (Monochoria vaginalis [1]) | inhibition at 1200 g/ha [2] | inhibition at 1200 g/ha (Monochoria vaginalis [3]) | inhibition at 1200 g/ha (Scirpus juncoides) | inhibition at 1200 g/ha (Echinochloa crus-galli [4]) | inhibition at 75 g/ha [5] | inhibition at 75 g/ha [6] | inhibition at 75 g/ha (Digitaria ciliaris [7]) | inhibition at 75 g/ha (Echinochloa crus-galli [8]) | inhibition at 75 g/ha (Echinochloa crus-galli [10])

CC(C)[C@]12C[C@@H](OCc3ccccc3F)[C@](C)(C[C@@H]1I)O2 [1-753, (1S,2R,4R,SS)-2-[(2-fluorophenyl)methoxy]-5-iodo-1-methyl-4-isopropyl-7-oxabicyclo[2.2.1]heptane]
≥ 80%: weed inhibition rate (Monochoria vaginalis [1]) | inhibition at 1200 g/ha [2] | inhibition at 1200 g/ha (Monochoria vaginalis [3]) | inhibition at 1200 g/ha (Scirpus juncoides) | inhibition at 1200 g/ha (Echinochloa crus-galli [4]) | inhibition at 75 g/ha [5] | inhibition at 75 g/ha [6] | inhibition at 75 g/ha (Digitaria ciliaris [7]) | inhibition at 75 g/ha (Echinochloa crus-galli [8]) | inhibition at 75 g/ha (Echinochloa crus-galli [10])

COC1(OC)C[C@]2(C)O[C@@]1(C(C)C)C[C@H]2OCc1ccccc1F [1-935, (1R,4S,5R)-5-((2-fluorobenzyl)oxy)-1-isopropyl-2,2-dimethoxy-4-methyl-7-oxabicyclo[2.2.1]heptane]
≥ 80%: pest or weed control at 1200 g/ha (Monochoria vaginalis [1]) | inhibition at 1200 g/ha [2] | inhibition at 1200 g/ha (Monochoria vaginalis [3]) | inhibition at 1200 g/ha (Scirpus juncoides) | inhibition at 1200 g/ha (Echinochloa crus-galli [4]) | inhibition at 75 g/ha [5] | inhibition at 75 g/ha [6] | inhibition at 75 g/ha (Digitaria ciliaris [7])

Cc1cccc(C)c1CO[C@@H]1C[C@]2(C(C)C)O[C@@]1(C)CC2=O [2-5, (1R,4S,5R)-5-((2,6-dimethylbenzyl)oxy)-1-isopropyl-4-methyl-7-oxabicyclo[2.2.1]heptan-2-one]
≥ 80%: pest or weed control at 1200 g/ha (Monochoria vaginalis [1]) | inhibition at 1200 g/ha [2] | inhibition at 1200 g/ha (Monochoria vaginalis [3]) | inhibition at 1200 g/ha (Echinochloa crus-galli [4]) | inhibition at 75 g/ha [5] | inhibition at 75 g/ha (Digitaria ciliaris [7]) | inhibition at 75 g/ha (Echinochloa crus-galli [8]) | inhibition at 75 g/ha (Digitaria ciliaris [9]) | inhibition at 75 g/ha (Echinochloa crus-galli [10])

Cc1ccccc1CO[C@@H]1C[C@@]2(C(C)C)C=C[C@]1(C)O2 [3-2, (1R,4S,5R)-4-methyl-5-[(2-methylphenyl)methoxy]-1-isopropyl-7-oxabicyclo[2.2.1]hept-2-ene]
≥ 80%: pest or weed control at 1200 g/ha (Monochoria vaginalis [1]) | inhibition at 1200 g/ha [2] | inhibition at 1200 g/ha (Monochoria vaginalis [3]) | inhibition at 1200 g/ha (Scirpus juncoides) | inhibition at 1200 g/ha (Echinochloa crus-galli [4]) | inhibition at 75 g/ha [5] | inhibition at 75 g/ha [6] | inhibition at 75 g/ha (Digitaria ciliaris [7]) | inhibition at 75 g/ha (Echinochloa crus-galli [8]) | inhibition at 75 g/ha (Echinochloa crus-galli [10])
